Among the data in PubChem BioAssay AID518 (Sanford-Burnham Center for Chemical Genomics, 2006) are IC50 values, retold here.

The assay addresses Alkaline phosphatase, tissue-nonspecific isozyme (Homo sapiens) (UniProt P05186). Put plainly: inhibition of tissue-nonspecific alkaline phosphatase – biochemical, luminescent (AID 518). The settings on record: purified TNAP enzyme, luminescent substrate readout.

Alkaline phosphatase, tissue-nonspecific isozyme (Homo sapiens), sequence (P05186 whole entry, looked up): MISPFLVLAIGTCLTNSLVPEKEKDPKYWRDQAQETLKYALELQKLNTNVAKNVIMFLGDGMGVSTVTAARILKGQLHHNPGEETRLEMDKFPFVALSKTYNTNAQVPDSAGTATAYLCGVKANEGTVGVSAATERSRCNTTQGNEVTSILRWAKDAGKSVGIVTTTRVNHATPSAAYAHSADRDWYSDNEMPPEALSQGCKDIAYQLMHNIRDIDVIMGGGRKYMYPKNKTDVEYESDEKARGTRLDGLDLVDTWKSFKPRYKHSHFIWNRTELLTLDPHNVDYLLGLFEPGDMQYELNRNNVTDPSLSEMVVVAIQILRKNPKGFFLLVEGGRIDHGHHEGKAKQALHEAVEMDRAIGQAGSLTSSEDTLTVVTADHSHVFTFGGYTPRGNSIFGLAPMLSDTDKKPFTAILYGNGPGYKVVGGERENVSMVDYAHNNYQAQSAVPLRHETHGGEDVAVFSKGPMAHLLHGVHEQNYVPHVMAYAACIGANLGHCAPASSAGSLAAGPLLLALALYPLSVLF

As for `COCc1[nH]nc2c1C(c1cc(OC)c(O)c(OC)c1)C(C#N)=C(N)O2` (stereo not drawn), the IC50 was 5250 nM.
In the case of `C/C(N)=C(/C#N)C(=O)CSc1n[nH]c(-c2ccccc2Br)n1` it was 1730 nM; in that of `O=C1C2CC=CCC2C(=O)N1c1n[nH]c(Cc2ccccc2)n1` (stereo not drawn), 330 nM.
